In publication PMC6631792, “In Vitro and In Vivo Anti-Breast Cancer Activities of Some Newly Synthesized 5-(thiophen-2-yl)thieno-[2,3-d]pyrimidin-4-one Candidates” (Molecules, 2019):

How the values were obtained:
MCF-7 cells = assay: MTT cytotoxic assay on MCF-7 cells; type: cell-based, Human; details: Homo sapiens, MCF7
Source text: “Human breast cancer cells (MCF-7) and normal non-tumorigenic MCF-10A cells were used throughout the work. Cells were obtained from ATCC, Gaithersburg, MD, USA. Standard MTT assay was used to explore the possible cytotoxic effects of the synthesized compounds [41, 42]. Medium composition, cultivation conditions and assay performance were exactly the same as our previous work. […] After MTT addition, the absorbance of the dissolved formazan crystals was read at 570 nm. The IC50 values were obtained with linear regression equations using Origin® 6.1 software (Origin Lab Corporation, Northampton, MA, USA)”.

[1] = Average animal weight in MCF-7 mouse xenograft model; type: in vivo; details: nude mice with MCF-7 xenograft, i.p.; for Average Weight of Animals in Grams after Days 0: day 0; for Average Weight of Animals in Grams after Days 2: day 2; for Average Weight of Animals in Grams after Days 4: day 4; for Average Weight of Animals in Grams after Days 6: day 6; for Average Weight of Animals in Grams after Days 8: day 8; for Average Weight of Animals in Grams after Days 10: day 10; for Average Weight of Animals in Grams after Days 12: day 12; for Average Weight of Animals in Grams after Days 14: day 14; for Average Weight of Animals in Grams after Days 16: day 16; for Average Weight of Animals in Grams after Days 18: day 18; for Average Weight of Animals in Grams after Days 20: day 20; for Average Weight of Animals in Grams after Days 22: day 22
Source text: “In this work, MCF-7 mouse xenograft model was used. The animal protocol was approved by the Institutional Animal Use Ethics and Care Committee of the University of Alabama at Birmingham (50-01-05-08B). Female athymic pathogen-free nude mice (nu/nu, 4–6 weeks) were purchased from Frederick Cancer Research and Development Center (Frederick, MD, USA). To establish MCF-7 human breast cancer xenografts, each of the female nude mice was first implanted with a 60-day (subcutaneously, s.c.) slow release estrogen pellet (SE-121, 1.7 mg […]/pellet; Innovative Research of America, Sarasota, FL, USA). After 24 h, grown cells were harvested, washed twice with serum-free medium, resuspended, and injected subcutaneously (5 million cells/0.2 mL) into the left inguinal area of the mice. During the experiment, animals were checked periodically and the percentages of tumor growth, as well as animal weights, were recorded. Every 48 h, the size of the tumor was recorded by measuring two perpendicular diameters of the tumor and tumor volume was calculated according to Wang et al. [46]”.
“Treated animals and control groups (7–10 mice/group) received different compounds and vehicles, respectively. The tested compounds were dissolved in PEG400:ethanol:saline (57.1:14.3:28.6, v/v/v), and injected intraperitoneal (i.p.) at doses of […], 3 d/wk for 3 weeks. The higher dose (10 µM/kg/d, 3 d/wk) inhibited MCF-7 xenograft tumor growth”.

Row | SMILES | IC50 (MCF-7 cells) [µM] | Average Weight of Animals in Grams after Days 0 [1] [Grams] | Average Weight of Animals in Grams after Days 2 [1] [Grams] | Average Weight of Animals in Grams after Days 4 [1] [Grams] | Average Weight of Animals in Grams after Days 6 [1] [Grams] | Average Weight of Animals in Grams after Days 8 [1] [Grams] | Average Weight of Animals in Grams after Days 10 [1] [Grams] | Average Weight of Animals in Grams after Days 12 [1] [Grams] | Average Weight of Animals in Grams after Days 14 [1] [Grams] | Average Weight of Animals in Grams after Days 16 [1] [Grams] | Average Weight of Animals in Grams after Days 18 [1] [Grams] | Average Weight of Animals in Grams after Days 20 [1] [Grams] | melting point [°C] | Average Weight of Animals in Grams after Days 22 [1] [Grams]
1 | NNC(=O)Cn1cnc2scc(-c3cccs3)c2c1=O [Compound 4, 2-(4-oxo-5-(thiophen-2-yl)thieno[2,3-d]pyrimidin-3(4H)-yl)acetohydrazide] | 4.87 ± 0.098 | 24.2 | 24.2 | 24.1 | 24.0 | 23.9 | 23.9 | 23.7 | 23.7 | 23.6 | 23.6 | 23.6 | 205 to 207 | 
2 | COc1cccc(C=NNC(=O)Cn2cnc3scc(-c4cccs4)c3c2=O)c1OC [Compound 6, N′-(2,3-Dimethoxybenzylidene)-2-(4-oxo-5-(thiophen-2-yl)thieno[2,3-d]pyrimidin-3(4H)-yl)-acetohydrazide] | 4.52 ± 0.085 | 23.7 | 23.7 | 23.6 | 23.6 | 23.5 | 23.5 | 23.5 | 23.4 | 23.4 | 23.5 | 23.5 | 248 to 250 | 23.5
3 | O=C(Cn1cnc2scc(-c3cccs3)c2c1=O)NN=Cc1ccc(Cl)cc1 [Compound 7, N′-(4-Chlorobenzylidene)-2-(4-oxo-5-(thiophen-2-yl)thieno[2,3-d]pyrimidin-3(4H)-yl)acetohydrazide] | 4.33 ± 0.076 | 27.3 | 27.3 | 27.2 | 27.2 | 27.2 | 27.1 | 27.1 | 27.1 | 27.0 | 27.0 | 27.0 | 250 to 252 | 27.0
4 | NC1=CC(N)N(NC(=O)Cn2cnc3scc(-c4cccs4)c3c2=O)C=C1 (stereo not drawn) [Compound 15, N-(2,4-Diaminopyridin-1(2H)-yl)-2-(4-oxo-5-(thiophen-2-yl)thieno[2,3-d]-pyrimidin-3(4H)-yl)acetamide] | 1.18 ± 0.032 | 26.1 | 26.1 | 26.1 | 25.8 | 25.8 | 25.7 | 25.7 | 25.6 | 25.6 | 25.5 | 25.5 |  | 25.2
